In patent publication US7459552B2, “Method for producing cyclic diamine derivative or salt thereof” (Kowa Co., Ltd., priority 2003, dated 2008):

melting point	SMILES
103 to 104 °C	CSc1cc(C)nc(SC)c1NC(=O)CN1CCN(CCSc2nc3cc(C(F)(F)F)ccc3o2)CC1 [Example 4, 2-[4-[2-(5-trifluoromethylbenzoxazol-2-ylthio)ethyl]piperazin-1-yl]-N-[2,4-bis(methylthio)-6-methylpyridin-3-yl]acetamide]
191 to 192 °C	Cc1cc(OCC(F)(F)F)c(NC(=O)CN2CCN(CCSc3nc4cc(F)c(F)cc4[nH]3)CC2)c(OCC(F)(F)F)n1 [Example 5, 2-[4-[2-(5,6-difluorobenzimidazol-2-ylthio)ethyl]piperazin-1-yl]-N-[2,4-bis(2,2,2-trifluoroethoxy)-6-methylpyridin-3-yl]acetamide]
141 to 142 °C	Cc1cc(OCC(F)(F)F)c(NC(=O)CN2CCN(CCSc3nc4ccccc4o3)CC2)c(OCC(F)(F)F)n1 [Example 7, 2-[4-[2-(benzoxazol-2-ylthio)ethyl]piperazin-1-yl]-N-[2,4-bis(2,2,2-trifluoroethoxy)-6-methylpyridin-3-yl]acetamide]
107 to 108 °C	Cc1cc(C(F)(F)F)c(NC(=O)CN2CCN(CCSc3nc4ccccc4s3)CC2)c(C)n1 [Example 8, 2-[4-[2-(benzothiazol-2-ylthio)ethyl]piperazin-1-yl]-N-[2,6-dimethyl-4-trifluoromethyl-pyridin-3-yl]acetamide]
